In ChEMBL document CHEMBL4354843, “Structure-Based Design of a Potent and Selective Covalent Inhibitor for SRC Kinase That Targets a P-Loop Cysteine” (J Med Chem, 2020):

Legend:
[1] = biological target: Fibroblast growth factor receptor 1 (Homo sapiens, UniProt P11362); test: Inhibition of recombinant human His-tagged FGFR1 (308 to 731 residues) expressed in baculovirus expression system using tyrosine-4 peptide as substrate incubated for 1 hr by Z'-LYTE assay
[2] = biological target: Proto-oncogene tyrosine-protein kinase Src (Homo sapiens, UniProt P12931); test: Inhibition of recombinant human His-tagged full length SRC expressed in baculovirus expression system using tyrosine-2 peptide as substrate incubated for 1 hr by Z'-LYTE assay
Chain of Proto-oncogene tyrosine-protein kinase Src (P12931 2-536 limits assumed): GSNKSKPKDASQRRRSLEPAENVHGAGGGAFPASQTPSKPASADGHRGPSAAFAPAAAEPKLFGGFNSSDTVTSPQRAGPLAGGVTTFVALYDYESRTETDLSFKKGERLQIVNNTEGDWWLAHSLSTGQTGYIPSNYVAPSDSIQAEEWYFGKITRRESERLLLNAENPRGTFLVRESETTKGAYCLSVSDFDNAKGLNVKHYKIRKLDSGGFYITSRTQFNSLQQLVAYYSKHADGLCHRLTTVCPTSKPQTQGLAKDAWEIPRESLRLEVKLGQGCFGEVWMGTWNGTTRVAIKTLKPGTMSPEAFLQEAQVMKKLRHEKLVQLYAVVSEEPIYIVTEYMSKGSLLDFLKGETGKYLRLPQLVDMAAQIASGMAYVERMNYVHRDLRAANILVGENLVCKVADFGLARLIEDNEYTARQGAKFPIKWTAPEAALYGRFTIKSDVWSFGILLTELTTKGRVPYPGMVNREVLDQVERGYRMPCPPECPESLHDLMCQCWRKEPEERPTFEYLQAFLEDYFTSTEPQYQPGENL

[3] = biological target: T1, Mitogen-activated protein kinase kinase kinase 7 (Homo sapiens, UniProt O43318); test: Inhibition of tracer 222 binding to recombinant human His-tagged TAK1 (437 to 504 residues) expressed in baculovirus expression system […] incubated for 60 mins by Lanthascreen assay
T1 sequence (O43318 whole entry): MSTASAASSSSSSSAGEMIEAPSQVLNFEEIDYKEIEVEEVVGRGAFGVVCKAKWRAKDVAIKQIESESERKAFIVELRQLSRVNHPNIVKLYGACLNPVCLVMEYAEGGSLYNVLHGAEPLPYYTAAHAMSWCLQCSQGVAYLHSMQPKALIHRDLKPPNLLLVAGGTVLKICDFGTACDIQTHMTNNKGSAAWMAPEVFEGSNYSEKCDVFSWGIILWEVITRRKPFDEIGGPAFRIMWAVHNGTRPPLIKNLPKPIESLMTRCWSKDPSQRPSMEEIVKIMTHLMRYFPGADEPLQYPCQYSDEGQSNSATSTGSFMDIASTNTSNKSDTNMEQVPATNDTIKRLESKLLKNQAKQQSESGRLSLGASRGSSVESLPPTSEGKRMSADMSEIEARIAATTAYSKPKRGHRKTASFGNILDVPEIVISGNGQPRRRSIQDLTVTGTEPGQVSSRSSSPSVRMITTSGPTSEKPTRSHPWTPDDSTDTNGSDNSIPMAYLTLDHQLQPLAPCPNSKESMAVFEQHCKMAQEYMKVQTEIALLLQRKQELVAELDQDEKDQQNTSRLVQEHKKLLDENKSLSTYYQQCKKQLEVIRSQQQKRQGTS

Chain of Fibroblast growth factor receptor 1 (P11362 whole entry, the tested form may be a part): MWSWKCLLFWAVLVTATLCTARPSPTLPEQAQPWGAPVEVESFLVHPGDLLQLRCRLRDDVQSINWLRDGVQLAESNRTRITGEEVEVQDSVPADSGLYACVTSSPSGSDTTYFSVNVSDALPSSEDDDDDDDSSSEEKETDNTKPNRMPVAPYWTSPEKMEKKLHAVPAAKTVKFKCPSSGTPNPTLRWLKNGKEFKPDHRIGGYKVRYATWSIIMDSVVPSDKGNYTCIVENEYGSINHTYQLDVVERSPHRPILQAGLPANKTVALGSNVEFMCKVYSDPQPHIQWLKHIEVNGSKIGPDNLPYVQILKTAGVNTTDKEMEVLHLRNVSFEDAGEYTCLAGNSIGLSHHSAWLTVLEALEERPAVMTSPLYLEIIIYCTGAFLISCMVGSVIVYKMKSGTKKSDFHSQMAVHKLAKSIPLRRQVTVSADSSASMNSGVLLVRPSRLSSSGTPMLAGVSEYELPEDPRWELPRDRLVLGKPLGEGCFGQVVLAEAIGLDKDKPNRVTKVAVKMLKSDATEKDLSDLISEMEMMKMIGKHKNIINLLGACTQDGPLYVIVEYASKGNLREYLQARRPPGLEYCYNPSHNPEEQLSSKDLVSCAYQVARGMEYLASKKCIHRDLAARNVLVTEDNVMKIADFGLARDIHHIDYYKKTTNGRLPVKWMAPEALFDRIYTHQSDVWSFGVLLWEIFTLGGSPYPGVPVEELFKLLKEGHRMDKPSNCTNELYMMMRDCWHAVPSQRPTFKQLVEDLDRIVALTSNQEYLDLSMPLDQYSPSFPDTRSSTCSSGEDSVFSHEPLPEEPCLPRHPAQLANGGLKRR

In the case of `C=CC(=O)Nc1ccccc1Nc1nc(Nc2ccc(N3CCN(C)CC3)cc2)ncc1C(=O)Nc1c(C)cc(C)cc1Cl`, the IC50 [1] is reported as > 3330 nM.

`C=CC(=O)Nc1ccccc1Nc1nc(Nc2ccc(N3CCN(C)CC3)cc2)ncc1C(=O)Nc1cc(C)cc(Cl)c1` was tested, and the IC50 [1] was > 10000 nM.

In the case of `C=CC(=O)Nc1ccccc1Nc1nc(Nc2ccc(N3CCN(C)CC3)cc2)ncc1C(=O)Nc1c(Cl)c(OC)cc(OC)c1Cl`, the IC50 [1] is reported as 391 nM.

With `C=CC(=O)Nc1ccccc1Nc1nc(Nc2ccc(N3CCN(C)CC3)cc2)ncc1-c1ccc(Oc2ccccc2)cc1` the IC50 [1] was 89 nM, the IC50 [2] was 5 nM and the IC50 [3] was 5460 nM.

`C=CC(=O)Nc1ccccc1Nc1nc(Nc2ccc(N3CCN(C)CC3)cc2)ncc1-c1ccc(OC)nc1` gave an IC50 [1] of 20 nM, an IC50 [2] of 6 nM and an IC50 [3] of 1890 nM.

In the case of `C=CC(=O)Nc1ccccc1Nc1nc(Nc2ccc(N3CCN(C)CC3)cc2)ncc1C(=O)Nc1ccc(Oc2ccccc2)cc1`, the IC50 [1] is reported as > 10000 nM and the IC50 [2] is reported as > 3330 nM.

With `C=CC(=O)Nc1ccccc1Nc1nc(Nc2ccc(N3CCN(C)CC3)cc2)ncc1C(=O)Nc1c(C)cc(Cl)cc1Cl` the IC50 [1] was > 10000 nM.

With `C=CC(=O)Nc1ccccc1Nc1nc(Nc2ccc(N3CCN(C)CC3)cc2)ncc1OCc1c(C)cccc1Cl` the IC50 [1] was 373 nM and the IC50 [2] was 3 nM.

In the case of `C=CC(=O)Nc1ccccc1Nc1nc(Nc2ccc(N3CCN(C)CC3)cc2)ncc1Cl`, the IC50 [1] is reported as 54 nM and the IC50 [2] is reported as 4 nM.

`C=CC(=O)Nc1ccccc1Nc1nc(Nc2ccc(N3CCN(C)CC3)cc2)ncc1C(=O)Nc1c(C)cc(C#N)cc1Cl` was tested, and the IC50 [1] was > 10000 nM.

For `C=CC(=O)Nc1ccccc1Nc1nc(Nc2ccc(N3CCN(C)CC3)cc2)ncc1OCc1ccc(C)cc1`, the IC50 [1] was 119 nM and the IC50 [2] was 5 nM.

In the case of `C=CC(=O)Nc1ccccc1Nc1nc(Nc2ccc(N3CCN(C)CC3)cc2)ncc1-c1ccc(C(C)=O)cc1`, the IC50 [1] is reported as 72 nM, the IC50 [2] is reported as 6 nM and the IC50 [3] is reported as 1490 nM.

`C=CC(=O)Nc1ccccc1Nc1nc(Nc2ccc(N3CCC(N4CCN(C)CC4)CC3)cc2)ncc1C(=O)Nc1c(C)cccc1Cl` was tested, and the IC50 [2] was > 10000 nM.

Compound `C=CC(=O)Nc1ccccc1Nc1nc(Nc2ccc(N3CCN(C)CC3)cc2)ncc1-c1cccs1` has an IC50 [1] of 17 nM, an IC50 [2] of 3 nM and an IC50 [3] of 543 nM.

With `C=CC(=O)Nc1ccccc1Nc1nc(Nc2ccc(N3CCN(C)CC3)cc2)ncc1C(=O)Nc1ccccc1CC` the IC50 [1] was > 10000 nM.

`C=CC(=O)Nc1ccccc1Nc1nc(Nc2ccc(N3CCN(C)CC3)cc2)ncc1-c1ccoc1` was tested, and the IC50 [1] was 12 nM, the IC50 [2] was 2 nM and the IC50 [3] was 224 nM.

`C=CC(=O)Nc1ccccc1Nc1nc(Nc2ccc(N3CCN(C)CC3)cc2)ncc1OCc1ccc(Oc2ccccc2)cc1` gave an IC50 [1] of 1050 nM and an IC50 [2] of 6 nM.

Compound `C=CC(=O)Nc1ccccc1Nc1nc(Nc2ccc(N3CCN(C)CC3)cc2)ncc1C(=O)Nc1cc(OC)c(OC)cc1C` has an IC50 [1] of 6710 nM.
